Measurements from PMC9503459, “Antifungal Activity, Structural Stability, and Immunomodulatory Effects on Human Immune Cells of Defensin from the Lentil Lens culinaris” (Membranes, 2022).
No end group written: not given here.

Legend:
[1] = system: monocyte-derived mature dendritic cells (moDCs); test: Cytokine response by multiplex xMAP, moDCs; format: cell-based, human; conditions: 2 µM, 24 h
Method: Colorectal adenocarcinoma Caco-2 cell line (ATCC HTB-37) was cultured in complete DMEM/F12 (1:1) medium containing 10% fetal bovine serum (FBS, Gibco) and 1X antibiotic-antimycotic solution (1XAAS, Invitrogen, Waltham, MA, USA). The acute monocytic leukemia THP-1 line (ATCC TIB-202) was cultured in complete RPMI-1640 medium, containing 10% FBS, 1XAAS, and […]. THP-1 cells were differentiated into pro-inflammatory macrophages (Mφ1) with phorbol 12-myristate 13-acetate (Sigma-Aldrich) for 24 h and subsequently polarized with lipopolysaccharide from E. coli (Sigma-Aldrich) and rhIFN-γ (Sigma-Aldrich) for another 48 h according to previously reported protocol. All cells were cultured in a humidified CO2 incubator (5% CO2, 37 °C). Primary peripheral blood mononuclear cells (PBMCs) collected from a healthy donor were purchased from American Type Culture Collection (ATCC PCS-800-011). CD4^+ T-helper and CD8^+ T cytotoxic cells were isolated from PBMCs by magnetic separation with mouse anti-human CD4-PE (clone 13B8.2, Beckman Coulter Diagnostics, Pasadena, CA, USA) and CD8-PE (clone REA734, Miltenyi Biotec, Bergisch Gladbach, Germany), Anti-PE MicroBeads (Miltenyi Biotec), and LS Separation Columns (Miltenyi Biotec). Isolated CD4^+ and CD8^+ cells were expanded separately with Dynabeads™ Human T-Expander CD3/CD28 (Gibco, Waltham, MA, USA) in RPMI-1640 supplemented with 10% FBS, 1XAAS and 100 U/mL rh-IL-2 (Gibco). Regulatory CD4^+ FoxP3^+ T cells (Tregs) were isolated from PBMCs by magnetic separation with CD4^+CD25^+ Regulatory T Cell Isolation Kit, human (Miltenyi Biotec). Primary CD14^+ blood monocytes were isolated from PBMCs by adherence according to standard technique. Monocyte-derived mature dendritic cells (moDCs) were obtained from CD14^+ blood monocytes according to the previously reported protocol. Briefly, blood monocytes were incubated in complete RPMI-1640 medium, containing 10% FBS, 1XAAS, 800 U/mL rhGM-CSF (Sci-Store, Russia, Moscow) and 500 U/mL rhIL-4 (Sci-Store) for 3 days. Fresh complete RPMI-1640 medium with rhGM-CSF and rhIL-4 was added to the culture on day 3. On day 5, fresh complete RPMI-1640 containing 100 U/mL rhTNF-α (Sigma) as well as 800 U/mL rhGM-CSF and 500 U/mL rhIL-4 was added and the culture was incubated for another 4 days until full maturation.
Caco-2 cells were seeded into the wells of a 48-well plate, coated with 0.1% bovine collagen (Sigma-Aldrich) for 24 h, 3 weeks before the experiment with complete DMEM/F12 (1:1) medium renewal every 2–3 days. Monocytes, moDCs, CD4^+ T-helper and CD8^+ T cytotoxic cells, Mφ1, and Regulatory CD4^+ FoxP3^+ T cells were seeded into the wells of 48-well plates in the complete RPMI-1640 medium supplemented with 10% Human AB serum (HABS, Capricorn Scientific, Ebsdorfergrund, Germany) and 1XAAS 24 h prior to the experiment; medium in Caco-2-containing wells was also replaced with the same medium. After 24 h, half of the medium in each well was replaced by fresh complete RPMI-1640 medium with 10% HABS, supplemented with 4 µM of Lc-def for the sample wells or fresh medium alone for the control wells. Cell cultures were kept in CO2-incubator (5% CO2, 37 °C) for another 24 h. Culture supernatants were collected 24 h later and stored at −70 °C degrees less than one month prior to the analytes assessment. […]

[2] = system: Gram-positive or Gram-negative bacteria; conditions: cited from earlier work

Lc-def: defensin from lentil Lens culinaris seeds (UniProt:B3F051), recombinant, overexpressed in Escherichia coli (KTCENLSDSFKGPCIPDGNCNKHCKEKEHLLSGRCRDDFRCWCTRNC; disulfide (positions not given here); ends not checked; also: disulfide bonds present, pairing not given here; UniProt B3F051 28-74, looked up)
EGF [1]: 2.16 pg/mL
Eotaxin [1]: <3.23↓ pg/ml
FGF-2 [1]: 34.19 pg/mL
FLT-3L [1]: 0.84 pg/mL
Fractalkine [1]: <23.19↓ pg/ml
G-CSF [1]: 4.71 pg/mL
GM-CSF [1]: 10.34 pg/mL
GROa [1]: <0.67↓ pg/ml
IFNa2 [1]: 7.77 pg/mL
IFNg [1]: 3.79 pg/mL
IL-1RA [1]: 37.33 pg/mL
IL-1a [1]: 20.45 pg/mL
IL-1b [1]: <18.72↓ pg/ml
IL-2 [1]: 0.98 pg/mL
IL-3 [1]: <0.48↓ pg/ml
IL-4 [1]: <0.31↓ pg/ml
IL-5 [1]: 2.41 pg/mL
IL-6 [1]: 1.12 pg/mL
IL-7 [1]: <0.33↓ pg/ml
IL-8 [1]: 162.8 pg/mL
IL-9 [1]: 4.1 pg/mL
IL-10 [1]: 14.42 pg/mL
IL-12 (p40) [1]: 19.56 pg/mL
IL-12 (p70) [1]: <1.48↓ pg/ml
IL-13 [1]: 11.42 pg/mL
IL-15 [1]: 15.16 pg/mL
IL-17A [1]: <1.55↓ pg/ml
IL-17E/IL-25 [1]: <20.59↓ pg/ml
IL-17F [1]: <16.96↓ pg/ml
IL-18 [1]: 2.04 pg/mL
IL-22 [1]: 9.4 pg/mL
IL-27 [1]: 51.46 pg/mL
IP-10 [1]: 1871 pg/mL
M-GSF [1]: 78 pg/mL
MCP-1 [1]: 782.17 pg/mL
MCP-3 [1]: 29.76 pg/mL
MDC [1]: 1903 pg/mL
MIG [1]: 33510 pg/mL
MIP-1a [1]: 119.77 pg/mL
MIP-1b [1]: 243.76 pg/mL
PDGF-AA [1]: 51.36 pg/mL
PDGF-AB/BB [1]: 107.03 pg/mL
RANTES [1]: 15.66 pg/mL
TGF-a [1]: 75.94 pg/mL
TNFa [1]: 21.61 pg/mL
TNFb [1]: <0.73↓ pg/ml
VEGFa [1]: <1.27↓ pg/ml
changes in cytokine profiles [1]: did not induce significant changes
sCD40L [1]: 84.33 pg/mL
effect on growth of bacteria [2]: did not affect the growth
